Here are results for twelve compounds from patent US11331369B2, “Endoparasitic depsipeptides” (Zoetis Services LLC, priority 2017, dated 2022).

Type in all cases: cell-based
For test [1], the system named is 4th stage larvae (L4) of Dirofilaria immitis. Nature of the test: Dirofilaria immitis, L4 Stage (DiL4) In Vitro Assay. The note with it: Dirofilaria immitis, 72 h, read-out: DiL4 Minimum Effective Dose (MED), approximately 72 hours incubation; L4 larvae assessed for survival or paralysis.
The test system of test [2] is third stage larvae of Haemonchus contortus. Nature of the test: Haemonchus contortus L3 (HcL3) Assay. The note with it: 96 h, read-out: HcL3 Minimum Effective Dose (MED).
Test [3] deals with microfilariae of Dirofilaria immitis. Nature of the test: Dirofilaria immitis, Microfilaria (DiMF) In vitro Assay. Particulars: 72 h, read-out: DiMF Minimum Effective Dose (MED), approximately 72 hours incubation, microfilariae assessed for survival or paralysis.

In the case of `CC(C)C[C@H]1C(=O)O[C@H](Cc2ccc(Cn3ccnc3Cl)cc2)C(=O)N(C)[C@@H](CC(C)C)C(=O)O[C@H](C)C(=O)N(C)[C@@H](CC(C)C)C(=O)O[C@H](Cc2ccc(Cn3ccnc3Cl)cc2)C(=O)N(C)[C@@H](CC(C)C)C(=O)O[C@H](C)C(=O)N1C` [Example 6-9, (3S,6R,9S,12R,15S,18R,21S,24R)-6,18-bis(4-((2-chloro-1H-imidazol-1-yl)methyl)benzyl)-3,9,15,21-tetraisobutyl-4,10,12,16,22,24-hexamethyl-1,7,13,19-tetraoxa-4,10,16,22-tetraazacyclotetracosan-2,5,8,11,14,17,20,23-octaone], the minimal effective concentration in test [1] was not above 0.0001 µM; in test [2], 1 to 10 µM.
Consider `CC(C)C[C@H]1C(=O)O[C@H](Cc2ccc(C3(n4cc(OC(C)C)cn4)CCC3)cc2)C(=O)N(C)[C@@H](CC(C)C)C(=O)O[C@H](C)C(=O)N(C)[C@@H](CC(C)C)C(=O)O[C@H](Cc2ccc(C3(n4cc(OC(C)C)cn4)CCC3)cc2)C(=O)N(C)[C@@H](CC(C)C)C(=O)O[C@H](C)C(=O)N1C` [Example 1c-3, (3S,6R,9S,12R,15S,18R,21S,24R)-3,9,15,21-tetraisobutyl-6,18-bis(4-(1-(4-isopropoxy-1H-pyrazol-1-yl)cyclobutyl)benzyl)-4,10,12,16,22,24-hexamethyl-1,7,13,19-tetraoxa-4,10,16,22-tetraazacyclotetracosan-2,5,8,11,14,17,20,23-octaone], for which the minimal effective concentration was not above 0.0001 µM in test [1] and not above 1 µM in test [2].
Consider `CC(C)C[C@H]1C(=O)O[C@H](Cc2ccc(Cn3nccc3-c3ccccc3)cc2)C(=O)N(C)[C@@H](CC(C)C)C(=O)O[C@H](C)C(=O)N(C)[C@@H](CC(C)C)C(=O)O[C@H](Cc2ccc(Cn3nc(C#N)cc3C#N)cc2)C(=O)N(C)[C@@H](CC(C)C)C(=O)O[C@H](C)C(=O)N1C` [Example 1a-12, 1-(4-(((2R,5S,8R,11S,14R,17S,20R,23S)-5,11,17,23-tetraisobutyl-4,8,10,16,20,22-hexamethyl-3,6,9,12,15,18,21,24-octaoxo-14-(4-((5-phenyl-1H-pyrazol-1-yl)methyl)benzyl)-1,7,13,19-tetraoxa-4,10,16,22-tetraazacyclotetracosan-2-yl)methyl)benzyl)-1H-pyrazole-3,5-dicarbonitrile], for which the minimal effective concentration in test [1] lay within 0.0001 to 0.001 µM; in test [3], 0.01 to 0.1 µM.
For `Cc1cc(C2CC2)n(Cc2ccc(C[C@H]3OC(=O)[C@H](CC(C)C)N(C)C(=O)[C@@H](C)OC(=O)[C@H](CC(C)C)N(C)C(=O)[C@@H](Cc4ccc(Cn5nc(C)cc5C5CC5)cc4)OC(=O)[C@H](CC(C)C)N(C)C(=O)[C@@H](C)OC(=O)[C@H](CC(C)C)N(C)C3=O)cc2)n1` [Example 1b-181, (3S,6R,9S,12R,15S,18R,21S,24R)-6,18-bis(4-((5-cyclopropyl-3-methyl-1H-pyrazol-1-yl)methyl)benzyl)-3,9,15,21-tetraisobutyl-4,10,12,16,22,24-hexamethyl-1,7,13,19-tetraoxa-4,10,16,22-tetraazacyclotetracosan-2,5,8,11,14,17,20,23-octaone], in that order: 0.001 to 0.01 µM and 0.01 to 0.1 µM.
For `CC(C)COc1cnn(Cc2ccc(C[C@H]3OC(=O)[C@H](CC(C)C)N(C)C(=O)[C@@H](C)OC(=O)[C@H](CC(C)C)N(C)C(=O)[C@@H](Cc4ccc(Cn5cc(OCC(C)C)cn5)cc4)OC(=O)[C@H](CC(C)C)N(C)C(=O)[C@@H](C)OC(=O)[C@H](CC(C)C)N(C)C3=O)cc2)c1` [Example 1b-172, (3S,6R,9S,12R,15S,18R,21S,24R)-6,18-bis(4-((4-isobutoxy-1H-pyrazol-1-yl)methyl)benzyl)-3,9,15,21-tetraisobutyl-4,10,12,16,22,24-hexamethyl-1,7,13,19-tetraoxa-4,10,16,22-tetraazacyclotetracosan-2,5,8,11,14,17,20,23-octaone], in that order: 0.001 to 0.01 µM and 0.01 to 0.1 µM.
For `Cc1cnn(Cc2ccc(C[C@H]3OC(=O)[C@H](CC(C)C)N(C)C(=O)[C@@H](C)OC(=O)[C@H](CC(C)C)N(C)C(=O)[C@@H](Cc4ccc(Cn5ncc(C)c5C)cc4)OC(=O)[C@H](CC(C)C)N(C)C(=O)[C@@H](C)OC(=O)[C@H](CC(C)C)N(C)C3=O)cc2)c1C` [Example 1b-152, (3S,6R,9S,12R,15S,18R,21S,24R)-6,18-bis(4-((4,5-dimethyl-1H-pyrazol-1-yl)methyl)benzyl)-3,9,15,21-tetraisobutyl-4,10,12,16,22,24-hexamethyl-1,7,13,19-tetraoxa-4,10,16,22-tetraazacyclotetracosan-2,5,8,11,14,17,20,23-octaone], in that order: 0.001 to 0.01 µM and 0.001 to 0.01 µM.
Consider `CC(C)Cc1ccnn1Cc1ccc(C[C@H]2OC(=O)[C@H](CC(C)C)N(C)C(=O)[C@@H](C)OC(=O)[C@H](CC(C)C)N(C)C(=O)[C@@H](Cc3ccc(Cn4nccc4CC(C)C)cc3)OC(=O)[C@H](CC(C)C)N(C)C(=O)[C@@H](C)OC(=O)[C@H](CC(C)C)N(C)C2=O)cc1` [Example 1b-209, (3S,6R,9S,12R,15S,18R,21S,24R)-3,9,15,21-tetraisobutyl-6,18-bis(4-((5-isobutyl-1H-pyrazol-1-yl)methyl)benzyl)-4,10,12,16, 22,24-hexamethyl-1,7,13,19-tetraoxa-4,10,16,22-tetraazacyclotetracosan-2,5,8,11,14,17,20,23-octaone], for which the minimal effective concentration is 0.0001 to 0.001 µM in test [1] and 0.01 to 0.1 µM in test [3].
Regarding `CC(C)C[C@H]1C(=O)O[C@H](Cc2ccc(Cn3nc(C#N)cc3C#N)cc2)C(=O)N(C)[C@@H](CC(C)C)C(=O)O[C@H](C)C(=O)N(C)[C@@H](CC(C)C)C(=O)O[C@H](Cc2ccccc2)C(=O)N(C)[C@@H](CC(C)C)C(=O)O[C@H](C)C(=O)N1C` [Example 2-62, 1-(4-(((2R,5S,8R,11S,14R,17S,20R,23S)-14-benzyl-5,11,17,23-tetraisobutyl-4,8,10,16,20,22-hexamethyl-3,6,9,12,15,18,21,24-octaoxo-1,7,13,19-tetraoxa-4,10,16,22-tetraazacyclotetracosan-2-yl)methyl)benzyl)-1H-pyrazole-3,5-dicarbonitrile], the minimal effective concentration lay in the range of 0.0001 to 0.001 µM in test [1] and 0.001 to 0.01 µM in test [3].
Regarding `COCc1cnn(Cc2ccc(C[C@H]3OC(=O)[C@H](CC(C)C)N(C)C(=O)[C@@H](C)OC(=O)[C@H](CC(C)C)N(C)C(=O)[C@@H](Cc4ccc(Cn5cc(COC)cn5)cc4)OC(=O)[C@H](CC(C)C)N(C)C(=O)[C@@H](C)OC(=O)[C@H](CC(C)C)N(C)C3=O)cc2)c1` [Example 1b-155, (3S,6R,9S,12R,15S,18R,21S,24R)-3,9,15,21-tetraisobutyl-6,18-bis(4-((4-(methoxymethyl)-1H-pyrazol-1-yl)methyl)benzyl)-4,10,12,16,22,24-hexamethyl-1,7,13,19-tetraoxa-4,10,16,22-tetraazacyclotetracosan-2,5,8,11,14,17,20,23-octaone], the minimal effective concentration in test [1] and in test [3] was 0.001 to 0.01 µM each time.
As for `CC(C)C[C@H]1C(=O)O[C@H](Cc2ccc(Cn3cc(C#CC4CC4)cn3)cc2)C(=O)N(C)[C@@H](CC(C)C)C(=O)O[C@H](C)C(=O)N(C)[C@@H](CC(C)C)C(=O)O[C@H](Cc2ccc(Cn3cc(C#CC4CC4)cn3)cc2)C(=O)N(C)[C@@H](CC(C)C)C(=O)O[C@H](C)C(=O)N1C` [Example 1b-113, (3S,6R,9S,12R,15S,18R,21S,24R)-6,18-bis(4-((4-(cyclopropylethynyl)-1H-pyrazol-1-yl)methyl)benzyl)-3,9,15,21-tetraisobutyl-4, 10,12,16,22,24-hexamethyl-1,7,13,19-tetraoxa-4,10,16,22-tetraazacyclotetracosan-2,5,8,11,14,17,20,23-octaone], the minimal effective concentration in test [1] lay within 0.0001 to 0.001 µM; in test [3], 0.01 to 0.1 µM.
In the case of `CCOc1cn(Cc2ccc(C[C@H]3OC(=O)[C@H](CC(C)C)N(C)C(=O)[C@@H](C)OC(=O)[C@H](CC(C)C)N(C)C(=O)[C@@H](Cc4ccc(Cn5ncc(OCC)c5C)cc4)OC(=O)[C@H](CC(C)C)N(C)C(=O)[C@@H](C)OC(=O)[C@H](CC(C)C)N(C)C3=O)cc2)nc1C` [Example 1a-38, (3S,6R,9S,12R,15S,18R,21S,24R)-6-[[4-[(4-ethoxy-3-methyl-pyrazol-1-yl)methyl]phenyl]methyl]-18-[[4-[(4-ethoxy-5-methyl-pyrazol-1-yl)methyl]phenyl]methyl]-3,9,15,21-tetraisobutyl-4,10,12,16,22,24-hexamethyl-1,7,13,19-tetraoxa-4,10,16,22-tetrazacyclotetracosane-2,5,8,11,14,17,20,23-octaone], the minimal effective concentration in test [1] and in test [3] was 0.001 to 0.01 µM in each case.
Turning to `CC(C)C[C@H]1C(=O)O[C@H](Cc2cccc(Cn3ccnc3Br)c2)C(=O)N(C)[C@@H](CC(C)C)C(=O)O[C@H](C)C(=O)N(C)[C@@H](CC(C)C)C(=O)O[C@H](Cc2ccc(Cn3ccnc3Br)cc2)C(=O)N(C)[C@@H](CC(C)C)C(=O)O[C@H](C)C(=O)N1C` [Example 7-3, (3S,6R,9S,12R,15S,18R,21S,24R)-6-[[3-[(2-bromoimidazol-1-yl)methyl]phenyl]methyl]-18-[[4-[(2-bromoimidazol-1-yl)methyl]phenyl]methyl]-3,9,15,21-tetraisobutyl-4,10,12,16,22,24-hexamethyl-1,7,13,19-tetraoxa-4,10,16,22-tetrazacyclotetracosane-2,5,8,11,14,17,20,23-octaone], the minimal effective concentration lay within 0.0001 to 0.001 µM in test [1] and 0.001 to 0.01 µM in test [3].
